Assay results reported in article PMC7057854, “Adapting free energy perturbation simulations for large macrocyclic ligands: how to dissect contributions from direct binding and free ligand flexibility” (Chemical Science, 2020).
Each block holds one compound with its values, some of them ahead of it.

Assays:
[1] = HPLC-based LogD determination; details: for tR (retention time used for LogD determination): HPLC-UV 254 nm, Nucleodur C18 Gravity, 50 mM ammonium acetate pH 7.4 (A) / acetonitrile (B), 0 min 0 % B to 20 min 95 % B, 1 mL/min, acetylated peptides, triplicates
[2] = set-up: method as in earlier work; details: octanol-water partitioning, received from literature; ref 3–5 (supplement); cited from earlier work
From the text: page 19: Table S8: Reference compounds used to establish a calibration curve for LogD determination.

[3] = target: T1, 14-3-3ζ full length His-tag (Homo sapiens, UniProt P63104); test: biochemical; type: binding; details: for BEI (binding efficiency index): BEI = pKd/(MW × 10^–3), pKd from direct FP of FITC-labelled peptides
T1 sequence (P63104 1-245): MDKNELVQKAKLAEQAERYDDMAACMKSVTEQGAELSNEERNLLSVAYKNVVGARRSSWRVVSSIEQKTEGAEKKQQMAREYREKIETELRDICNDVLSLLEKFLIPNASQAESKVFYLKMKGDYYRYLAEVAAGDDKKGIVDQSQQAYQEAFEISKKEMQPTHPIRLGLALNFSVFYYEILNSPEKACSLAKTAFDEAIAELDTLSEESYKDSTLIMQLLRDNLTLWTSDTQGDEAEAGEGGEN

[4] = target: T1, 14-3-3ζ full length His-tag; test: biochemical

tR (retention time used for LogD determination) [1]: 15.31±0.002 min
SMILES: COc1ccc([C@@H]2Sc3ccccc3N(CCN(C)C)C(=O)[C@@H]2OC(C)=O)cc1 [Diltiazem, reference compound]
LogD of reference compound [2]: 2.70

SMILES: CC(C)C[C@H](NC(=O)[C@H](CC(=O)O)NC(=O)[C@H](CC(C)C)NC(=O)[C@]1(C)CCCCCCCC[C@@](C)(NC(=O)CNC(=O)[C@H](CCC(N)=O)NC(=O)COCCOCCNC(=S)Nc2ccc3c(c2)C(=O)OC32c3ccc(O)cc3Oc3cc(O)ccc32)C(=O)N[C@@H](CC(C)C)C(=O)N[C@@H](CC(=O)O)C(=O)N1)C(N)=O [compound 3]
Kd [3]: 2880 nM
BEI (binding efficiency index) [3]: 3.66

SMILES: CC(=O)NCC(=O)N[C@@H]1CCCCCCCC[C@@](C)(C(=O)N[C@@H](CC(C)C)C(=O)N[C@@H](CC(=O)O)C(=O)N[C@@H](CC(C)C)C(N)=O)NC(=O)[C@H](CC(=O)O)NC(=O)[C@H](CC(C)C)NC1=O [compound 8]
tR (retention time used for LogD determination) [1]: 12.37±0.003 min
LogD ([1]; pH 7.4): 1.03±0.031

SMILES: CC(=O)N[C@@H](CCC(N)=O)C(=O)NCC(=O)N[C@]1(C)CCCCCCCC[C@@](C)(C(=O)N[C@@H](CC(C)C)C(=O)N[C@@H](CC(=O)O)C(=O)N[C@@H](CC(C)C)C(=O)N[C@@H](C)C(=O)N[C@@H](CO)C(N)=O)NC(=O)[C@H](CC(=O)O)NC(=O)[C@H](CC(C)C)NC1=O [compound 1]
tR (retention time used for LogD determination) [1]: 12.58±0.197 min
chromatographic logD ([1]; pH 7.4): 1.15 ± 0.068

SMILES: CC[C@@]1(C(=O)N[C@@H](CC(C)C)C(=O)N[C@@H](CC(=O)O)C(=O)N[C@@H](CC(C)C)C(N)=O)CCCCCCCC[C@@](C)(NC(=O)CNC(C)=O)C(=O)N[C@@H](CC(C)C)C(=O)N[C@@H](CC(=O)O)C(=O)N1 [compound 10]
tR (retention time used for LogD determination) [1]: 12.78±0.009 min
chromatographic logD ([1]; pH 7.4): 1.28 ± 0.04

tR (retention time used for LogD determination) [1]: 10.21±0.024 min
SMILES: COCCc1ccc(OCC(O)CNC(C)C)cc1 (stereo not drawn) [Metoprolol, reference compound]
LogD of reference compound [2]: -0.06

tR (retention time used for LogD determination) [1]: 12.14±0.010 min
SMILES: CC(CCc1ccccc1)NCC(O)c1ccc(O)c(C(N)=O)c1 (stereo not drawn) [Labetolol, reference compound]

SMILES: CC(C)C[C@H](NC(=O)[C@H](CC(=O)O)NC(=O)[C@H](CC(C)C)NC(=O)[C@]1(C)CCCCCCCC[C@@](C)(NC(=O)CNC(=O)[C@H](CCC(N)=O)NC(=O)COCCOCCNC(=S)Nc2ccc3c(c2)C(=O)OC32c3ccc(O)cc3Oc3cc(O)ccc32)C(=O)N[C@@H](CC(C)C)C(=O)N[C@@H](CC(=O)O)C(=O)N1)C(=O)N[C@@H](C)C(N)=O [compound 2]
Kd [3]: 355 nM
BEI (binding efficiency index) [3]: 4.07

SMILES: CC(C)C[C@@H]1NC(=O)[C@](C)(NC(=O)CNC(=O)[C@H](CCC(N)=O)NC(=O)COCCOCCNC(=S)Nc2ccc3c(c2)C(=O)OC32c3ccc(O)cc3Oc3cc(O)ccc32)CCCCCCCC[C@@](C)(C(=O)N[C@@H](CC(C)C)C(=O)N[C@@H](CC(=O)O)C(N)=O)NC(=O)[C@H](CC(=O)O)NC1=O [compound 4]
Kd [3]: > 100000 nM
BEI (binding efficiency index) [3]: 2.86

SMILES: CC(=O)NCC(=O)N[C@]1(C)CCCCCCCC[C@@](C)(C(=O)N[C@@H](CC(C)C)C(=O)N[C@@H](CC(=O)O)C(=O)N[C@@H](CC(C)C)C(N)=O)NC(=O)[C@H](CC(=O)O)NC(=O)[C@H](CC(C)C)NC1=O [compound 5]
tR (retention time used for LogD determination) [1]: 12.75±0.003 min
chromatographic logD ([1]; pH 7.4): 1.26
Δlog D relative to 7 (H/H) ([1]; pH 7.4): 0.63

SMILES: CC(=O)NCC(=O)N[C@]1(C)CCCCCCCC[C@@H](C(=O)N[C@@H](CC(C)C)C(=O)N[C@@H](CC(=O)O)C(=O)N[C@@H](CC(C)C)C(N)=O)NC(=O)[C@H](CC(=O)O)NC(=O)[C@H](CC(C)C)NC1=O [compound 9]
tR (retention time used for LogD determination) [1]: 12.35±0.003 min
chromatographic logD ([1]; pH 7.4): 1.01 ± 0.031
Ki [4]: > 31600 nM

SMILES: CC[C@@]1(NC(=O)CNC(C)=O)CCCCCCCC[C@@](C)(C(=O)N[C@@H](CC(C)C)C(=O)N[C@@H](CC(=O)O)C(=O)N[C@@H](CC(C)C)C(N)=O)NC(=O)[C@H](CC(=O)O)NC(=O)[C@H](CC(C)C)NC1=O [compound 11]
tR (retention time used for LogD determination) [1]: 12.88±0.003 min
chromatographic logD ([1]; pH 7.4): 1.33 ± 0.041

SMILES: CC(C)C[C@H](NC(=O)[C@H](CC(=O)O)NC(=O)[C@H](CC(C)C)NC(=O)[C@]1(C)CCCCCCCC[C@@](C)(NC(=O)CNC(=O)[C@H](CCC(N)=O)NC(=O)COCCOCCNC(=S)Nc2ccc3c(c2)C(=O)OC32c3ccc(O)cc3Oc3cc(O)ccc32)C(=O)N[C@@H](CC(C)C)C(=O)N[C@@H](CC(=O)O)C(=O)N1)C(=O)N[C@@H](C)C(=O)N[C@@H](C)C(N)=O [S430A]
Kd [3]: 72 ± 5 nM

SMILES: CC[C@@]1(NC(=O)CNC(C)=O)CCCCCCCC[C@@](CC)(C(=O)N[C@@H](CC(C)C)C(=O)N[C@@H](CC(=O)O)C(=O)N[C@@H](CC(C)C)C(N)=O)NC(=O)[C@H](CC(=O)O)NC(=O)[C@H](CC(C)C)NC1=O [compound 12]
tR (retention time used for LogD determination) [1]: 12.92±0.001 min
chromatographic logD ([1]; pH 7.4): 1.35
Δlog D relative to 5 (Me/Me) ([1]; pH 7.4): 0.09

SMILES: CC(C)C[C@H](NC(=O)[C@H](CC(=O)O)NC(=O)[C@H](CC(C)C)NC(=O)[C@]1(C)CCCCCCCC[C@@](C)(NC(=O)COCCOCCNC(=S)Nc2ccc3c(c2)C(=O)OC32c3ccc(O)cc3Oc3cc(O)ccc32)C(=O)N[C@@H](CC(C)C)C(=O)N[C@@H](CC(=O)O)C(=O)N1)C(N)=O [compound 6]
Kd [3]: 12300 nM
BEI (binding efficiency index) [3]: 3.70

SMILES: CC(=O)NCC(=O)N[C@@H]1CCCCCCCC[C@@H](C(=O)N[C@@H](CC(C)C)C(=O)N[C@@H](CC(=O)O)C(=O)N[C@@H](CC(C)C)C(N)=O)NC(=O)[C@H](CC(=O)O)NC(=O)[C@H](CC(C)C)NC1=O [compound 7]
tR (retention time used for LogD determination) [1]: 11.70±0.007 min
chromatographic logD ([1]; pH 7.4): 0.63 ± 0.019
